This passage reports IC50 results from patent US8722661B2, “Pyrrolopyrimidone and pyrrolopyridone inhibitors of tankyrase” (Genentech, Inc., priority 2012, dated 2014).

Broadly, the IC50 is the concentration that gives 50% inhibition.

The target of experiment [1] is T1, PARP1 (His6-PARP1, full length) (Homo sapiens, UniProt P09874).
T1 construct: His6-PARP1 (full length)
The experiment in a line: μHTS-TNKS-IWR2 TR-FRET binding assay with His6-PARP1 in place of TNKS1. To be noted: Table I. As for the experimental part:
(§1) μHTS-TNKS-IWR2TR-FRET Binding Assay
(§2) (10 μL/well in BD1536-well plate, a single point)
(§3) Alternatively, in place of His6-TNKS1 can use either His6-tankyrase 2 (construct: 934-1166) (His6-TNKS2) or His6-PARP1 (full length).
(§4) Biotin-IWR2: 10 mM Biotin-IWR2 stock in DMSO, stored at −20° C.
Positive control: 10 mM […] in DMSO, stored at −20° C.
(§5) Prepare Biotinylated IWR2 stock solution (3.33× stock) for TOTL and cpd wells: 200 nM Biotin-IWR2 in 5% DMSO/AB1b buffer
(§6) Prepare POSITIVE CONTROL well stock solution (3.33× stock): 200 nM XAV939 in 200 nM Biotin-IWR2/5% DMSO/AB1b buffer
(§7) (Alternatively, use TNKS2 or PARP1 stock solutions.)
(§8) Prepare Eu/APC stock solution (5× stock): 3.5 nM Eu-SA/50 nM APC-His6Ab in AB2 buffer
(§9) Add 25 μL/well 1.5% DMSO/AB1c buffer in each compound well to the compound concentration at 74 μM in 8.8% DMSO/AB1c buffer or in the 2 μL DMSO CONTROL wells (BLANK, TOTAL and POSITIVE wells) in the compound plate.
(§10) Transfer 3 μL/well above solution (solution 1,2,3) to an empty assay plate (BD1536-well plate) as follows:
(§11) Transfer 3 μL/well of the above diluted compound solutions or compound dilution buffer to the above assay plate.
(§12) Add 2 μL/well of 300 nM TNKS stock solution (4) to every well in the above assay plate.
(§13) Incubate the assay plate at 26° C. for 30 minutes.
(§14) Incubate the assay plate at 26° C. for 60 minutes.
(§15) Read the assay plate immediately at excitation wavelength of 330 nm and emission wavelength of […] in time resolved fluorescence mode.
(§16) Representative compound data for assays are listed below in Table I. Values are in uM.
A general note: In TR-FRET formats the signal depends on donor and acceptor labels being close together.

Another experiment deals with T2, tankyrase 2 (His6-TNKS2) (Homo sapiens, UniProt Q9H2K2).
T2 construct: His6-tankyrase 2 (construct: 934-1166)
The experiment in a line: μHTS-TNKS-IWR2 TR-FRET binding assay with His6-TNKS2 in place of TNKS1. To be noted: Table I. As to the method: as §1, §2, §3, §4
Positive control: 10 mM XAV 939 in DMSO, stored at −20° C.
as §5, §6, §7, §8, §9, §10, §11, §12, §13, §14, §15, §16

The target in the next experiment is T3, Tankyrase 1 (TNKS1) (Homo sapiens, UniProt O95271).
T3 construct: construct: 1088-1327, 1266M
Description: μHTS-TNKS-IWR2 TR-FRET binding assay (TNKS1). As for the experimental part:
as §1, §2
Reagents and Stock Solutions
as §4
Assay buffer 1a (AB 1a) for TNKS dilution: 50 mM Tris, pH 7.4, 100 mM sodium chloride solution, 1 mM magnesium chloride solution, 1 mM DL-dithiothreitol solution, 0.2 mg/mL bovine serum albumin solution, 0.025% NP-40.
Assay buffer 1b (AB 1b) for Biotin-IWR2 dilution: 50 mM Tris, pH 7.4, 100 mM sodium chloride solution, 1 mM magnesium chloride solution, 1 mM DL-dithiothreitol solution, 0.2 mg/mL bovine serum albumin solution, 0.05% NP-40
Assay buffer 1c (AB 1c) for compound dilution: 50 mM Tris, pH 7.4, 100 mM sodium chloride solution, 1 mM magnesium chloride solution, 1 mM DL-dithiothreitol solution, 0.2 mg/mL bovine serum albumin solution
Assay buffer 2 (AB2) for Eu/APC: 50 mM Tris, pH 7.4, 100 mM sodium chloride solution, 1 mM magnesium chloride solution, 0.2 mg/mL bovine serum albumin solution
Reagent Stock Solution Preparation
Prepare BLANK well stock solution: 5% DMSO/AB1b buffer
Prepare TNKS1 stock solution (5× stock): 300 nM TNKS in AB1a buffer
as §10
TOTL and cpd wells: Solution 1 (Biotin-IWR2):
BLNK wells: Solution 2 (No Biotin-IWR2):
POSITIVE CONTROL wells: Solution 3 (Biotin-IWR2+XAV939)
as §11, §12
Centrifuge the assay plate at 2100 rpm for 2 minutes.
as §13, §14

Where only a bound is given, the exact number is not on record here.

T3 sequence (O95271 1088-1327): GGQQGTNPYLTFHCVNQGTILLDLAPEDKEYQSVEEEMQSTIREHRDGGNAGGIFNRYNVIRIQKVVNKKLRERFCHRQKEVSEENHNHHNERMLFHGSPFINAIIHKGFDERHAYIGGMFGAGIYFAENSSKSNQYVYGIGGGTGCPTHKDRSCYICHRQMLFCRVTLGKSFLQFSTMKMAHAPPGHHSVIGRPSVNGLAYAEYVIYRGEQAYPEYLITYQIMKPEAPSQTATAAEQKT
T1 sequence (P09874 whole entry): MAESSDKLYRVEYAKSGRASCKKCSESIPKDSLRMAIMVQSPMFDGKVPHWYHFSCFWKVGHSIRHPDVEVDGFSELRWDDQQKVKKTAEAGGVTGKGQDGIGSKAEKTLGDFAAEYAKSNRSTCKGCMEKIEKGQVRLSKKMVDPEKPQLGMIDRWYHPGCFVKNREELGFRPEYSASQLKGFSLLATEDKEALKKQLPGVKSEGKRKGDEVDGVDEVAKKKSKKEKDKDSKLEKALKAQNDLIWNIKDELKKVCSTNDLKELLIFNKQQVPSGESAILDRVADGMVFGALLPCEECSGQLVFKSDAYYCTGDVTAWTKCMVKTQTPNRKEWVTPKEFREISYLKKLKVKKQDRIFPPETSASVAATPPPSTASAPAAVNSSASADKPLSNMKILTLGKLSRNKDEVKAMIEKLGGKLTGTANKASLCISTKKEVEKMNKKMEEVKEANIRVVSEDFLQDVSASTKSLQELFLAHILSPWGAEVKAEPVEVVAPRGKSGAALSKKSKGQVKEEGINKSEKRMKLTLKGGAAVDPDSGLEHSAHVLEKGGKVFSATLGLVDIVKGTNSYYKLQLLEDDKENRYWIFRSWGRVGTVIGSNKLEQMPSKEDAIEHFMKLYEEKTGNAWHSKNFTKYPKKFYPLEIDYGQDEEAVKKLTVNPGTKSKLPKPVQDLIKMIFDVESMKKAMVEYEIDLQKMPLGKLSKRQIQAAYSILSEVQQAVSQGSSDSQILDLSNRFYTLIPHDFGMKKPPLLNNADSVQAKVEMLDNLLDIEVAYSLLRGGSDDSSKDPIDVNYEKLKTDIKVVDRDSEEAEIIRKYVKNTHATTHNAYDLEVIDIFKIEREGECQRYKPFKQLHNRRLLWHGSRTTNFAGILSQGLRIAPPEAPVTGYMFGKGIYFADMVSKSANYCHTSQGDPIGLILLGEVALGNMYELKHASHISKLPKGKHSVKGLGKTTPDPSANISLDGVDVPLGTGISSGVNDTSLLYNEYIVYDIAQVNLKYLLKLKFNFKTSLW
T2 sequence (Q9H2K2 934-1166): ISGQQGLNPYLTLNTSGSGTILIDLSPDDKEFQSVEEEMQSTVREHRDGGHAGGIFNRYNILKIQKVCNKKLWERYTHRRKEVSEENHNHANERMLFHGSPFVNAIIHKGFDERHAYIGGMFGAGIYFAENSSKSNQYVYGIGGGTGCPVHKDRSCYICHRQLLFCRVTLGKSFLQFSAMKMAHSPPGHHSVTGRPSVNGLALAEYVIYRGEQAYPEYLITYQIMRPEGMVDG

Consider `Cn1ccc2c(=O)[nH]c(N3CCN(c4ccncc4)CC3)nc21` [Example 1, 7-Methyl-2-(4-pyridin-4-yl-piperazin-1-yl)-3,7-dihydro-pyrrolo[2,3-d]pyrimidin-4-one], for which the half-maximal inhibitory concentration (IC50) in experiment [1] turned out to be 143 nM; at tankyrase 2 (His6-TNKS2) it was 593 nM; at Tankyrase 1 (TNKS1), 722 nM.
Take `CCOC(=O)c1ccc(N2CCN(c3nc4c(ccn4C)c(=O)[nH]3)CC2)cc1` [Example 2, Ethyl 4-(4-(7-methyl-4-oxo-4,7-dihydro-3H-pyrrolo[2,3-d]pyrimidin-2-yl)piperazin-1-yl)benzoate]: the figures for the 50% inhibitory concentration (IC50) (in experiment [1]; on tankyrase 2 (His6-TNKS2); at Tankyrase 1 (TNKS1)) were 564 nM, 66 nM and 70 nM, respectively.
Take `Cn1ccc2c(=O)[nH]c(N3CCN(c4ccc(Cl)cc4)CC3)nc21` [Example 3, 2-[4-(4-Chloro-phenyl)-piperazin-1-yl]-7-methyl-3,7-dihydro-pyrrolo[2,3-d]pyrimidin-4-one]: the half-maximal inhibitory concentration (IC50) in experiment [1] was determined as 1060 nM; at tankyrase 2 (His6-TNKS2), 51 nM; at Tankyrase 1 (TNKS1), 42 nM.
As to `Cn1ccc2c(=O)[nH]c(N3CCN(c4ccccn4)CC3)nc21` [Example 4, 7-Methyl-2-(4-pyridin-2-yl-piperazin-1-yl)-3,7-dihydro-pyrrolo[2,3-d]pyrimidin-4-one], the figures for the IC50 (in experiment [1]; on tankyrase 2 (His6-TNKS2); on Tankyrase 1 (TNKS1)) were 437 nM, 118 nM and 134 nM, respectively.
On the same counts, the results for `Cn1ccc2c(=O)[nH]c(N3CCN(c4ccc(F)cc4S(C)(=O)=O)CC3)nc21` [Example 5, 2-[4-(4-Fluoro-2-methanesulfonyl-phenyl)-piperazin-1-yl]-7-methyl-3,7-dihydro-pyrrolo[2,3-d]pyrimidin-4-one] are 1180 nM, 35 nM and 30 nM.
On the same counts, the results for `Cn1ccc2c(=O)[nH]c(N3CCN(c4ncccc4C(F)(F)F)CC3)nc21` [Example 6, 7-Methyl-2-[4-(3-trifluoromethyl-pyridin-2-yl)-piperazin-1-yl]-3,7-dihydro-pyrrolo[2,3-d]pyrimidin-4-one] are 2210 nM, 36 nM and 34 nM.
As to `Cn1ccc2c(=O)[nH]c(N3CCN(c4cc(Cl)cc(Cl)c4)CC3)nc21` [Example 7, 2-[4-(3,5-Dichloro-phenyl)-piperazin-1-yl]-7-methyl-3,7-dihydro-pyrrolo[2,3-d]pyrimidin-4-one], the half-maximal inhibitory concentration (IC50) in experiment [1] is over 50000 nM; at tankyrase 2 (His6-TNKS2) it was 405 nM; on Tankyrase 1 (TNKS1), 494 nM.
In the case of `Cn1ccc2c(=O)[nH]c(N3CCN(c4ncccn4)CC3)nc21` [Example 8, 7-Methyl-2-(4-pyrimidin-2-yl-piperazin-1-yl)-3,7-dihydro-pyrrolo[2,3-d]pyrimidin-4-one], the half-inhibitory concentration (IC50) was 339 nM in experiment [1], 143 nM at tankyrase 2 (His6-TNKS2) and 190 nM on Tankyrase 1 (TNKS1).
With `Cn1ccc2c(=O)[nH]c(N3CCN(c4ncccc4C#N)CC3)nc21` [Example 9, 2-[4-(7-Methyl-4-oxo-4,7-dihydro-3H-pyrrolo[2,3-d]pyrimidin-2-yl)-piperazin-1-yl]-nicotinonitrile], the 50% inhibitory concentration (IC50) in experiment [1] was determined as 618 nM; at tankyrase 2 (His6-TNKS2), 63 nM; on Tankyrase 1 (TNKS1), 70 nM.
As for `Cn1ccc2c(=O)[nH]c(N3CCN(c4nccnc4C#N)CC3)nc21` [Example 10, 4-(7-Methyl-4-oxo-4,7-dihydro-3H-pyrrolo[2,3-d]pyrimidin-2-yl)-3,4,5,6-tetrahydro-2H-[1,2]bipyrazinyl-3′-carbonitrile], the results for the IC50 (in experiment [1]; at tankyrase 2 (His6-TNKS2); at Tankyrase 1 (TNKS1)) were 603 nM, 121 nM and 111 nM, respectively.
On the same counts, the results for `CN1CCN(c2nc3c(ccn3C)c(=O)[nH]2)CC1` [Example 11, 7-Methyl-2-(4-methyl-piperazin-1-yl)-3,7-dihydro-pyrrolo[2,3-d]pyrimidin-4-one] are 471 nM, 285 nM and 358 nM.
On the same counts, the results for `Cn1ccc2c(=O)[nH]c(N3CCOCC3)nc21` [Example 12, 7-Methyl-2-morpholin-4-yl-3,7-dihydro-pyrrolo[2,3-d]pyrimidin-4-one] are 1720 nM, 1830 nM and 1910 nM.
Regarding `Cn1ccc2c(=O)[nH]c(N3CCN(S(C)(=O)=O)CC3)nc21` [Example 13, 2-(4-Methanesulfonyl-piperazin-1-yl)-7-methyl-3,7-dihydro-pyrrolo[2,3-d]pyrimidin-4-one], the half-maximal inhibitory concentration (IC50) in experiment [1] amounted to 604 nM; on tankyrase 2 (His6-TNKS2), 126 nM; at Tankyrase 1 (TNKS1), 112 nM.
On the same counts, the results for `CC(=O)N1CCN(c2nc3c(ccn3C)c(=O)[nH]2)CC1` [Example 14, 2-(4-Acetyl-piperazin-1-yl)-7-methyl-3,7-dihydro-pyrrolo[2,3-d]pyrimidin-4-one] are 229 nM, 427 nM and 466 nM.
`Cn1ccc2c(=O)[nH]c(N3CC(C)(c4ccc(Br)cc4)C3)nc21` [Example 15, 2-[3-(4-Bromo-phenyl)-3-methyl-azetidin-1-yl]-7-methyl-3,7-dihydro-pyrrolo[2,3-d]pyrimidin-4-one]: the IC50 worked out at 3460 nM in experiment [1], 192 nM at tankyrase 2 (His6-TNKS2) and 348 nM at Tankyrase 1 (TNKS1).
Regarding `Cn1ccc2c(=O)[nH]c(N3CCC(c4ccccc4)C3)nc21` (stereo not drawn) [Example 16, 7-Methyl-2-(3-phenyl-pyrrolidin-1-yl)-3,7-dihydro-pyrrolo[2,3-d]pyrimidin-4-one], the IC50 in experiment [1] is 1260 nM; at tankyrase 2 (His6-TNKS2) it was 1070 nM; on Tankyrase 1 (TNKS1) it was 915 nM.
For `Cn1ccc2c(=O)[nH]c(N3CCN(c4ccc(F)cc4)CC3)nc21` [Example 17, 2-[4-(4-Fluoro-phenyl)-piperazin-1-yl]-7-methyl-3,7-dihydro-pyrrolo[2,3-d]pyrimidin-4-one], in that order: 1080 nM, 32 nM and 27 nM.
As to `Cn1ccc2c(=O)[nH]c(N3CCN(c4cccc(F)c4)CC3)nc21` [Example 18, 2-[4-(3-Fluoro-phenyl)-piperazin-1-yl]-7-methyl-3,7-dihydro-pyrrolo[2,3-d]pyrimidin-4-one], the IC50 in experiment [1] was determined as 758 nM; at tankyrase 2 (His6-TNKS2), 59 nM; at Tankyrase 1 (TNKS1), 59 nM.
As to `Cn1ccc2c(=O)[nH]c(N3CCN(c4ccccc4C#N)CC3)nc21` [Example 19, 2-[4-(7-Methyl-4-oxo-4,7-dihydro-3H-pyrrolo[2,3-d]pyrimidin-2-yl)-piperazin-1-yl]-benzonitrile], the half-maximal inhibitory concentration (IC50) in experiment [1] came out at 1050 nM; on tankyrase 2 (His6-TNKS2) it was 34 nM; on Tankyrase 1 (TNKS1), 43 nM.
For `Cn1ccc2c(=O)[nH]c(N3CCN(c4ccc(F)cc4F)CC3)nc21` [Example 20, 2-[4-(2,4-Difluoro-phenyl)-piperazin-1-yl]-7-methyl-3,7-dihydro-pyrrolo[2,3-d]pyrimidin-4-one], in that order: 1220 nM, 36 nM and 31 nM.
As to `Cn1ccc2c(=O)[nH]c(N3CCN(c4cccc(C#N)c4)CC3)nc21` [Example 21, 3-[4-(7-Methyl-4-oxo-4,7-dihydro-3H-pyrrolo[2,3-d]pyrimidin-2-yl)-piperazin-1-yl]-benzonitrile], the IC50 amounted to 612 nM in experiment [1], 90 nM at tankyrase 2 (His6-TNKS2) and 81 nM on Tankyrase 1 (TNKS1).
On the same counts, the results for `Cn1ccc2c(=O)[nH]c(N3CCN(c4ccc(C#N)cc4)CC3)nc21` [Example 22, 4-[4-(7-Methyl-4-oxo-4,7-dihydro-3H-pyrrolo[2,3-d]pyrimidin-2-yl)-piperazin-1-yl]-benzonitrile] are 453 nM, 74 nM and 97 nM.
